The source of these data is patent publication US12661369B2, “Muscular atrophy inhibitor and method for inhibiting muscular atrophy” (YAMASA CORPORATION, priority 2020, dated 2026).

Holding throughout (type): cell-based, Mouse
For test [1], the system named is C2C12 cells differentiated into myotube cells. Nature of the test: Dexamethasone-induced myotube atrophy in C2C12 cells, myotube cell diameter (Example 1-2, also used for Examples 2 and 3). On the procedure: Mouse myoblast cell line C2C12 cells (RIKEN BRC, RCB0987) were suspended in growth medium (Dulbecco's modified Eagle's Medium supplemented with 10% FBS, 100 units/ml of penicillin, 100 μg/ml of streptomycin), seeded in 24-well plates, and incubated in a 37° C., 5% CO2 incubator until the cell density reached 70-90%.
The growth medium was removed, and exchanged to a differentiation induction medium (Dulbecco's modified Eagle's Medium supplemented with 2% adult bovine serum, 100 units/ml of penicillin, 100 μg/ml of streptomycin). The cells were cultured for 4 days while exchanging the medium once every 2 days and differentiated into myotube cells. The medium was removed and exchanged to the following media: • (1) Differentiation induction medium containing no dexamethasone [Dex (−)]; • (2) Differentiation induction medium containing 100 μM dexamethasone [Dex (+)]; • (3) Differentiation induction medium containing 100 μM dexamethasone and a certain amount of disodium cytidylate [Dex (+), a certain amount of CMP]; • (4) Differentiation induction medium containing 100 μM dexamethasone and a certain amount of cytidine [Dex (+), a certain amount of cytidine (which may be abbreviated as “Cyd”)]; • (5) Differentiation induction medium containing 100 μM dexamethasone and a certain amount of disodium uridylate [Dex (+), certain amount of UMP]; and • (6) Differentiation induction medium containing 100 μM dexamethasone and a certain amount of uridine [Dex (+), certain amount of uridine].
After culturing the cells for 3 days, five positions near the center of the wells were photographed at magnifications of 100. Using ImageJ image analysis software, the diameters of 10 myotube cells per a photograph were measured in the order from the myotube cell having the largest diameter, and an average of 50 cells was determined to be the diameter of the myotube cell in each well. Statistical analysis was performed by t-test or Dunnett's multiple comparison test using the differentiation induction medium treatment group supplemented only with 100 μM dexamethasone as a control. The threshold for statistical significance was set to 5%.
Cytidylic acid and uridylic were added to the medium at the concentrations shown in FIG. 7 so that the total concentration of cytidylic acid and uridylic acid was 1000 μM.
In Example 2, the total concentration of cytidylic acid/uridylic acid added to the medium was adjusted to 1000 μM and a ratio of the cytidylic acid/uridylic acid was varied.
Similarly, the effect of the combination of cytidine and uridine were also evaluated.

The next test has as its system MuRF1. Briefly: MuRF1 mRNA expression in dexamethasone-treated C2C12 myotube cells (Example 4). Particulars: 48 hours pretreatment, then 1 μM dexamethasone plus test substance 24 hours, corrected by β-actin. On the procedure:
(§1) Mouse myoblast cell line C2C12 cells were suspended in growth medium, seeded in 24-well plates, and incubated in a 37° C., 5% C02 incubator until the cell density reached 70-90%. The growth medium was removed, and exchanged to a differentiation induction medium. The cells were cultured for 6 days while exchanging the medium once every 2 days and differentiated into myotube cells. The medium was removed and exchanged to a differentiation induction medium or a differentiation induction medium containing a test substance. After 48 hours, the medium was removed and replaced with a differentiation induction medium, a differentiation induction medium supplemented only with 1 μM dexamethasone, or a medium supplemented with 1 μM dexamethasone and test substances (a certain amount of UMP (disodium uridylate), a certain amount of Urd (uridine), and […]).
(§2) After 24 hours, the medium was removed and total RNA was extracted from the cells using RNeasy Mini kit (QIAGEN) or NucleoSpin RNA (Takara Bio).
(§3) Using the total RNA as a template, a reverse transcription reaction solution was prepared using the ReverTra Ace(R) qPCR RT Kit (Toyobo). […] Analysis was performed by relative quantification, and mRNA expression levels were corrected using the β-actin mRNA expression level as an endogenous control. […]

A further test relates to Atrogin-1. Briefly: Atrogin-1 mRNA expression in dexamethasone-treated C2C12 myotube cells (Example 4). Particulars: 48 hours pretreatment, then 1 μM dexamethasone plus test substance 24 hours, corrected by β-actin. On the procedure:
as §1, §2, §3

In test [2] the test system is C2C12 cells differentiated into myotube cells. Briefly: Dexamethasone-induced myotube atrophy in C2C12 cells, myotube cell diameter (Example 1-1). Particulars: 100 μM dexamethasone plus 2 mM or 5 mM disodium uridylate, 48 hours, vs Dex (+), UMP (−). The method, then: Mouse myoblast cell line C2C12 cells (RIKEN BRC, RCB0987) were suspended in growth medium (Dulbecco's modified Eagle's Medium supplemented with 10% FBS, 100 units/ml of penicillin, 100 μg/ml of streptomycin), seeded in 24-well plates, and incubated in a 37° C., 5% C02 incubator until the cell density reached 70-90%.
The growth medium was removed, and exchanged to a differentiation induction medium (Dulbecco's modified Eagle's Medium supplemented with 2% adult bovine serum, 100 units/ml of penicillin, 100 μg/ml of streptomycin). The cells were cultured for 4 days while exchanging the medium once every 2 days and differentiated into myotube cells. […]
After 24 hours, the medium was changed again. […] Using ImageJ image analysis software, the diameters of 10 myotube cells per a photograph were measured in the order from the myotube cell having the largest diameter, and an average of 50 cells was determined to be the diameter of the myotube cell in each well. […]

[3] abbreviates: Example 1-2, 100 μM dexamethasone plus a certain amount of test substance, 3 days, vs Dex (+) only.
[4] abbreviates: Example 3, 100 μM dexamethasone plus single test substance.

Entries after “also recorded” stand apart in the source; their conditions may differ.

For `O=c1ccn([C@@H]2O[C@H](CO)[C@@H](O)[C@H]2O)c(=O)[nH]1` [uridine], the myotube cell diameter result in test [1] (setting [3]) was “significantly increased; also recorded: myotube cell atrophy inhibiting effect”; in test [1] (setting [4]), “significantly increased”. In addition, the “mRNA expression level of MuRF1” value in the test with MuRF1 is recorded as “decreased; also recorded: excellent inhibiting effect”. Also, the “mRNA expression level of Atrogin-1” value in the test on Atrogin-1 was “decreased; also recorded: excellent inhibiting effect”.

For the compound `Nc1ccn([C@@H]2O[C@H](CO)[C@@H](O)[C@H]2O)c(=O)n1` [cytidine], the myotube cell diameter result in test [1] (setting [3]) was “significantly increased; also recorded: myotube cell atrophy inhibiting effect”; in test [1] (setting [4]), “significantly increased”.

Consider `Nc1ccn([C@@H]2O[C@H](COP(=O)(O)O)[C@@H](O)[C@H]2O)c(=O)n1` [cytidylic acid], for which the myotube cell diameter entry in test [1] (setting [3]) was “significantly increased; also recorded: myotube cell atrophy inhibiting effect”; in test [1] (setting [4]), “significantly increased”.

Regarding `O=c1ccn([C@@H]2O[C@H](COP(=O)(O)O)[C@@H](O)[C@H]2O)c(=O)[nH]1` [uridylic acid], the results for the myotube cell diameter result in test [2], in test [1] (setting [3]) and in test [1] (setting [4]) were “the reduction was suppressed”, “significantly increased; also recorded: myotube cell atrophy inhibiting effect” and “significantly increased”, respectively. In addition, the “mRNA expression level of MuRF1” value in the test on MuRF1 is recorded as “decreased; also recorded: excellent inhibiting effect”. For the same compound, the “mRNA expression level of Atrogin-1” value in the test on Atrogin-1 was “decreased; also recorded: excellent inhibiting effect”.
